This is an account of results in patent publication US10414739B2, “Compounds as inhibitors of the YAP/TAZ-TEAD interaction and their use in the treatment of malignant mesothelioma” (INVENTIVA, priority 2015, dated 2019).

SMILES strings stand for the structures. Where a name gives a salt, the structure may show the parent alone.

Data set [1] concerns the target T1, YAP-TEAD interaction (human YAP2-His6 (50-114) / human TEAD1-GST (209-426)) (Homo sapiens, UniProt P28347).
T1 construct: GST-TEAD1 (209-426) produced in E. coli; made in house; host or cells: E. coli
Kind of data set: YAP-TEAD AlphaLISA assay. In kind it is binding. As to conditions: for Emax: 2 h, maximal % inhibition, read-out: Max Act.; for Emax / IC50: YAP-TEAD AlphaLISA; for IC50: 2 h equilibration at room temperature. How it is done:
YAP-TEAD AlphaLISA Assay for IC50 Value Determination.
YAP-TEAD binding and inhibition was assessed by monitoring the engagement of YAP2 peptide (human YAP2-His6 (50-114) produced in E. coli) with TEAD (human TEAD1-GST (GST-TEAD1 (209-426) produced in E. coli) using the AlphaLisa technology (Perkin-Elmer). Specifically, in a 384 well (Axygen) 5 μl of compounds were dispensed in 100% DMSO following a semi log serial dilution, with a top concentration of […] (10 concentrations). A ‘3 partners solution’ was prepared by mixing AlphaScreen Glutathione Donor beads 15 μg/ml (PerkinElmer), Anti-6×His AlphaLisA Acceptor beads 15 μg/ml (PerkinElmer) and Human YAP2 9 nM in 100 mM NaCl, 25 mM Hepes, 0.1% BSA, 0.5% NoNidet®P40 buffer. In the 384 assay plate (Proxiplate, Perkin-Elmer)) 2 μl of compound at each concentration, 6 μl of buffer, 6 μl of hTEAD1-GST 9 nM and 6 μl of ‘3 partner solution’ were mixed. After 2 h equilibration at room temperature in the dark the plates were read on an Envision instrument (Excitation @ 680 nm/Emission @ 570 nm, Perkin Elmer).
Results were expressed as % inhibition=100×((HighControl−Cpd)/(HighControl−LowControl)), were High control is the maximum response obtained with all components and Low control is the basal response obtained with all components without GST-Tead1.
Cpd is the response obtained for test compounds.
IC50 (half maximal inhibitory concentration) was determined by fitting the concentration response curves using a 3-parameter curve fit equation and determining concentration corresponding to 50% inhibition.

Another data set deals with SW620 cell line. Put plainly: Cell proliferation in YAP-independent cell line (EdU). In kind it is cell-based. As for the experimental part: The tumor cell growth inhibitory activity of the YAP-TEAD interaction inhibitors was evaluated in NCI-H2052 mesothelioma cell line harboring a NF2 mutation. This cell line was selected based on its mutational status and the ability of a siRNA directed against YAP, TAZ or TEAD1-4 to inhibit cell proliferation. The nuclear localization of YAP at confluence was also taken into account. Based on these observations we were able to classify several “YAP dependent cells” where YAP is clearly nuclear and in which a cell growth inhibition is observed by using siRNA (NCI-H2052, SKOV-3, ACHN, A549) and the “YAP independent cells” where YAP is preferentially located in the cytoplasm and in which no inhibition of cell growth is observed by using a siRNA (SW620, Met-5a). […] After one day growth in the starvation medium, cells were incubated with compounds. The starting concentration was 30 μM and serial dilutions in DMSO and medium were performed until […] to achieve a final DMSO concentration of 0.5%. The cells were then allowed to grow for 3 days, and then, EdU (Invitrogen, Molecular Probe) was added in each well at a final concentration of 10 μM and the cells were returned to the incubator for additional 24 h. Starvation medium was removed and 100 μl of PFA 4% containing Hoechst dye was adding in each well to fix the cells. Plates were then incubated at room temperature for 15 minutes, washed twice with PBS and the cells were permeabilized by adding 100 μl per well of triton-100 containing 0.3% BSA. After 20 minutes cells were washed with PBS and the EdU detection was performed according to the instructions of the manufacturer. Image acquisition was performed using the ImageXpress Micro and analysed using the MetaXpress software (Molecular Device). Results were expressed as a percent of inhibition (%) of the cell proliferation values obtained with 0.5% DMSO treatment alone. The cellular response was determined by fitting the concentration response curves using a 3 parameter curve fit equation and determining the concentration that inhibited cell growth between 50% and 100%.

The subject of data set [2] is NCI-H2052 mesothelioma cell line. Put plainly: Inhibition of malignant mesothelioma tumor cell growth (EdU proliferation). In kind it is cell-based. The settings on record: NCI-H2052 (NF2 mutated), 1% serum. As for the experimental part:
Inhibition of Malignant Mesothelioma Tumor Cell Growth
The tumor cell growth inhibitory activity of the YAP-TEAD interaction inhibitors was evaluated in NCI-H2052 mesothelioma cell line harboring a NF2 mutation. This cell line was selected based on its mutational status and the ability of a siRNA directed against YAP, TAZ or TEAD1-4 to inhibit cell proliferation. The nuclear localization of YAP at confluence was also taken into account. Based on these observations we were able to classify several “YAP dependent cells” where YAP is clearly nuclear and in which a cell growth inhibition is observed by using siRNA (NCI-H2052, SKOV-3, ACHN, A549) and the “YAP independent cells” where YAP is preferentially located in the cytoplasm and in which no inhibition of cell growth is observed by using a siRNA (SW620, Met-5a). […] After one day growth in the starvation medium, cells were incubated with compounds. The starting concentration was 30 μM and serial dilutions in DMSO and medium were performed until […] to achieve a final DMSO concentration of 0.5%. The cells were then allowed to grow for 3 days, and then, EdU (Invitrogen, Molecular Probe) was added in each well at a final concentration of 10 μM and the cells were returned to the incubator for additional 24 h. Starvation medium was removed and 100 μl of PFA 4% containing Hoechst dye was adding in each well to fix the cells. Plates were then incubated at room temperature for 15 minutes, washed twice with PBS and the cells were permeabilized by adding 100 μl per well of triton-100 containing 0.3% BSA. […] Image acquisition was performed using the ImageXpress Micro and analysed using the MetaXpress software (Molecular Device). Results were expressed as a percent of inhibition (%) of the cell proliferation values obtained with 0.5% DMSO treatment alone. The cellular response was determined by fitting the concentration response curves using a 3 parameter curve fit equation and determining the concentration that inhibited cell growth between 50% and 100%.

Data set [3] relates to P53 / SV40 large T antigen (AgT) interaction in HEK293 cells. Kind of data set: Counter-screening protein-protein interaction transactivation assay (P53+AgT). In kind it is cell-based. The settings on record: HEK293, same conditions as TEAD-GAL4 assay. As for the experimental part: (§1) To identify inhibitors of YAP-TEAD interaction, a transient transactivation assays was carried out into HEK293 cell line (HEK293 GripTite™ 293 MSR (Invitrogen R795-07)) using plasmids containing the full length TEAD1 sequences, the full length YAP mutant (S127A, S397A) and a luciferase gene reporter. All expression constructs were performed into pSG5 backbone plasmid in which the SV40 promoter was replaced by the CMV promoter. The TEAD1 construct was prepared by cloning the full length human TEAD1 cDNA in fusion with the Gal4 DNA Binding Domain (AA 1-148) into pSG5_CMV to create the TEAD1(FL)_hum_pSG5Gal4_CMV. The full length YAP mutant (S127A, S397A) was also cloned into pSG5_CMV to create the YAP(FL)_hum_pSG5_mutS127A_S397A_CMV. The reporter plasmid GAL4(5×RE)_TK(−105/+56)_pGL3-Basic contains 5 copies of the GAL4 responsive element (5′-TCGGAGGACAGTACTCC-3′) upstream of the thymidine kinase (TK) promoter (−105/+56) inserted in a pGL3-Basic vector. To evaluate the selectivity of our compounds in blocking the YAP-TEAD interaction, a counter-screening protein-protein interaction transactivation assays was also established. Briefly, two other expression plasmids, the pBD-P53 which express the P53 (AA 72-390) in fusion with Gal4 and the pAD-SV40T which express the SV40 large T antigen (AA 84-708,AgT), were created. HEK293 cells were seeded at 5×10^4 cells/well in 96 well plates (assay plates) in DMEM medium containing 4.5 g/L D-glucose, 10% high inactivated (HI) fetal bovine serum 1% Glutamax, 1% non-essential amino acid and 1% sodium pyruvate and 0.5% penicillin/streptomycin 37° C. in a humidified atmosphere of 8% CO2. […] Twenty-four hours later, the luciferase activity was determined after addition of 100 μl of Steady Glo™ luciferase assay system (Promega E2550) according to the manufacturer's directions. Luciferase activity in cell extracts is measured by reading luminescence using the Envision device.

For data set [4], the system named is YAP-TEAD interaction in co-transfected HEK293 cells. Put plainly: Cell-based TEAD-GAL4 transactivation assay (luciferase reporter). The settings on record: Homo sapiens, HEK293 co-transfected with TEAD1-Gal4, YAP mutant (S127A, S397A) and reporter, 24 h. As for the experimental part: Effect of Compounds on the Cell-Based TEAD-GAL4 Transactivation Assay
as §1, with “created.” for “created. HEK293 cells were seeded at 5×10^4 cells/well in 96 well plates (assay plates) in DMEM medium containing 4.5 g/L D-glucose, 10% high inactivated (HI) fetal bovine serum 1% Glutamax, 1% non-essential amino acid and 1% sodium pyruvate and 0.5% penicillin/streptomycin 37° C. in a humidified atmosphere of 8% CO2.”
The cellular response was determined by fitting the concentration response curves using a 3-parameter curve fit equation and determining the concentration that inhibited the luciferase activity by 50%.

T1 sequence (P28347 209-426): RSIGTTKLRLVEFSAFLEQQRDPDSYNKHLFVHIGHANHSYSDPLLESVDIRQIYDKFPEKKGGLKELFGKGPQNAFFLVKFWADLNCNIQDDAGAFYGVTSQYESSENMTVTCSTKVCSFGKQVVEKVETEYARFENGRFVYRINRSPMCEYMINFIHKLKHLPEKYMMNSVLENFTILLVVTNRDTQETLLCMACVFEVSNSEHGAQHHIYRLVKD

Take `COc1cc(/C=N/N(CCO)C2=NS(=O)(=O)c3ccccc32)ccc1O` [Example 2, 4-[(E)-[(1,1-dioxo-1,2-benzothiazol-3-yl)-(2-hydroxyethyl)-hydrazono]methyl]-2-methoxy-phenol]: in data set [1], the Emax turned out to be 93% and half-maximal inhibition (IC50) required 0.949 µM. In addition, the “effect on cell proliferation” value with SW620 cell line is recorded as “without showing any effect”. Also, the “inhibition of cell proliferation” value in data set [2] was “inhibited”. In addition, the “inhibitory effect in counter screening assay (P53+AgT)” value in data set [3] is given as “no inhibitory effect was observed”. The inhibition at 30 µM in data set [4] lay in the range of 50 to 75%.

`COc1cc(/C=N/N(C)C2=NS(=O)(=O)c3c(C)cc(F)cc32)ccc1O` [Example 20, 4-[(E)-[(5-fluoro-7-methyl-1,1-dioxo-1,2-benzothiazol-3-yl)-methyl-hydrazono]methyl]-2-methoxy-phenol]: the melting point is more than 260 °C. In data set [1], the Emax is 95% and the IC50 came out at 3.41 µM.

`COc1cc(/C=N/N(CCN2CCOCC2)C2=NS(=O)(=O)c3c(OC)cc(C)cc32)ccc1O` [Example 32, 2-methoxy-4-[(E)-[(7-methoxy-5-methyl-1,1-dioxo-1,2-benzothiazol-3-yl)-(2-morpholinoethyl)hydrazono]methyl]phenol hydrochloride]: in data set [1], the Emax stood at 95% and the IC50 is 0.139 µM.

With `COc1cc(/C=N/N(C)C2=NS(=O)(=O)c3cc(C)ccc32)ccc1O` [Example 33, 2-methoxy-4-[(E)-[methyl-(6-methyl-1,1-dioxo-1,2-benzothiazol-3-yl)hydrazono]methyl]phenol], in data set [1], the Emax turned out to be 90% and half-maximal inhibition (IC50) required 0.766 µM.

In the case of `COc1cc(/C=N/N(C)C2=NS(=O)(=O)c3cc(C(=O)O)ccc32)ccc1O` [Example 34, 3-[[(E)-(4-hydroxy-3-methoxy-phenyl)methyleneamino]-methyl-amino]-1,1-dioxo-1,2-benzothiazole-6-carboxylic acid], the melting point is more than 260 °C. In data set [1], the Emax came to 97% and the IC50 stood at 4.57 µM.

With `COc1ccc2c(c1)C(N(C)/N=C/c1ccc(O)c(OC)c1)=NS2(=O)=O` [Example 35, 2-methoxy-4-[(E)-[(5-methoxy-1,1-dioxo-1,2-benzothiazol-3-yl)-methyl-hydrazono]methyl]phenol], in data set [1], the Emax was found to be 77% and the IC50 stood at 0.354 µM.

For `COc1cc(/C=N/N(C2=NS(=O)(=O)c3ccccc32)C(C)C)ccc1O` [Example 36, 4-[(E)-[(1,1-dioxo-1,2-benzothiazol-3-yl)-isopropyl-hydrazono]methyl]-2-methoxy-phenol], in data set [1], the Emax came out at 77% and the concentration for half-maximal inhibition (IC50) amounted to 78 µM.

Consider `COc1cc(/C=N/N(CC(F)(F)F)C2=NS(=O)(=O)c3ccccc32)ccc1O` [Example 37, 4-[(E)-[(1,1-dioxo-1,2-benzothiazol-3-yl)-(2,2,2-trifluoroethyl)-hydrazono]methyl]-2-methoxy-phenol], for which, in data set [1], the Emax stood at 74% and the IC50 stood at 70.8 µM.

As for `COc1cc(/C=N/N(C2=NS(=O)(=O)c3ccccc32)c2ccc(C(=O)O)cc2)ccc1O` [Example 38, 4-[(1,1-dioxo-1,2-benzothiazol-3-yl)-[(E)-(4-hydroxy-3-methoxy-phenyl)methyleneamino]amino]benzoic acid], in data set [1], the Emax stood at 99% and it took 105 µM to reach half-maximal inhibition (IC50).

`COc1cc(/C=N/N(C)C2=NS(=O)(=O)c3cc(-c4ccccc4)ccc32)ccc1O` [Example 39, 4-[(E)-[(1,1-dioxo-6-phenyl-1,2-benzothiazol-3-yl)-methyl-hydrazono]-methyl]-2-methoxy-phenol]: in data set [1], the Emax worked out at 61% and it took 62.2 µM to reach half-maximal inhibition (IC50).

`COc1ccc2c(c1)S(=O)(=O)N=C2N(C)/N=C/c1ccc(O)c(OC)c1` [Example 40, 2-methoxy-4-[(E)-[(6-methoxy-1,1-dioxo-1,2-benzothiazol-3-yl)-methyl hydrazono]methyl]phenol]: in data set [1], the Emax was 91% and the midpoint of inhibition, the IC50, lay at 16.2 µM.

On to `COc1cc(/C=N/N(C)C2=NS(=O)(=O)c3cc(F)ccc32)ccc1O` [Example 41, 4-[(E)-[(6-fluoro-1,1-dioxo-1,2-benzothiazol-3-yl)-methyl-hydrazono]-methyl]-2-methoxy-phenol], for which, in data set [1], the Emax was found to be 85% and the IC50 stood at 5.74 µM.

`COc1cc(/C=N/N(C)C2=NS(=O)(=O)c3ccc(F)cc32)ccc1O` [Example 42, 4-[(E)-[(5-fluoro-1,1-dioxo-1,2-benzothiazol-3-yl)-methyl-hydrazono]-methyl]-2-methoxy-phenol]: in data set [1], the Emax stood at 84% and the IC50 is 2.47 µM.

On to `COc1ccc(/C=N/N(C)C2=NS(=O)(=O)c3ccccc32)cc1OC` [N-[(E)-(3,4-dimethoxyphenyl)methyleneamino]-N-methyl-1,1-dioxo-1,2-benzothiazol-3-amine, reference compound], for which the inhibition at 1000 µM in data set [1] (at 1 mM concentration) worked out at 30%.
